# Several values for one entry are separate records, joined by “and”; a condition that tells them apart may be missing. Equal values may be shown once. Ends that are not written are not given here.
# Key:
# [1] = test system: learning disorder-induced mouse; assay: Y-maze test on learning disorder-induced (LPS) mouse; format: in vivo; settings: for Learning ability in Y-maze test: LPS-administered mice, Examples 6 and 7
# Protocol: The learning disorder-alleviating activity of the GLP-1 derivative was evaluated by a Y-maze test on a learning disorder-induced mouse, using the FOS 12 solution of GLP-1 derivative.
# As the learning disorder-induced mouse, ddY mice (5-7 week old, male, n=5) were administered with lipopolysaccharide (LPS) by 10 μg at three days before the test. Fifteen minutes before the administration of LPS, the mice were administered with GLP-1 derivative by 3 μg with the FOS 12 solution of GLP-1 derivative.
# The Y-maze test was performed by using a device having three arms of the same size. The number of times that the mouse entered the different arm for consecutive three times was counted, and the result was divided by a number obtained by deducting 2 from the total number of times of entering the arm. The result was multiplied by 100, and used as a spontaneous alternation behavior (%).
# (§1) As a control, mice (5-7 week old, male, n=5 or 7), intranasally administered a solvent without GLP-1 derivative by 4 μL 15 minutes before the administration of LPS, were subjected to the same test as the above. Further, mice that were not administered with LPS (vehicle) were subjected to the same test as the above. The error bar represents mean±SE (n=5 or 7), and the statistical processing was performed by Mann-Whitney test (*P<0.05, **P<0.01).
# As the learning disorder-induced mouse, ddY mice (5-7 week old, male, n=6) administered with lipopolysaccharide (LPS) by 10 μg three days before the test were used. Fifteen minutes before the administration of LPS, the mice were administered with NmU derivative by 3 μg with the FOS 12 solution of NmU derivative. A Y-maze test was performed in the same manner as Example 6, and a spontaneous alternation behavior (%) was calculated from the measurement results.
# as §1, with “n=6), which were” for “n=5 or 7),”, “NmU” for “GLP-1”, “mice” for “mice that were”, “(n=6),” for “(n=5 or 7),”, “(*P<0.01, **P<0.001).” for “(*P<0.05, **P<0.01).”
# rats = assay: Forced-swim test on rats (anti-depression activity); format: in vivo, rat; settings: intranasal 18 μg/day
# Protocol: The anti-depression activity of the GLP-2 derivative was evaluated by a forced-swim test on rats using the DMSO solution of GLP-2 derivative. The forced-swim test was performed in accordance with the following procedure.
# One hour before the test, rats (8-10 week old, male, n=6) were transferred to the laboratory for habituation. The rats were intranasally administered with the DMSO solution of GLP-2 derivative by 18 μg/day for two days, 30 minutes before the test. The rats were allowed to swim for 15 minutes, one by one in a transparent plastic cylinder with a diameter of 18 cm and a height of 50 cm filled with water of 25±1° C. to a height of 30 cm. During the swimming, the immobility time (s) was measured. The rats after the test were wiped with a Kimtowel and placed back to a cage. The test was performed for consecutive 2 days, day 1 as a preliminary test and day 2 as a main test. As a control, rats (8-10 week old, male, n=6) were intranasally administered with a solvent without GLP-2 derivative by 10 μL and subjected to a forced-swim test in the same manner. The error bar represents mean±SE (n=6), and the statistical processing was performed by Mann-Whitney test (*P<0.05). […]
# ddY mice [2] = assay: Tail suspension test on a mouse; format: in vivo; settings: Example 4, mouse tail suspension test
# Protocol: The anti-depression activity of the GLP-2 derivative was evaluated by a tail suspension test on a mouse, using the DMSO solution of GLP-2 derivative as prepared in Example 3. The test was performed by the following process.
# On the day before the test and on the day for the test, ddY mice (5-7 week old, male, n=9) were administered with the GLP-derivative by 3.6 μg, respectively, with the DMSO solution. Then, the mice were suspended by the tail and the immobility time (s) was measured. As a control, mice (5-7 week old, male, n=9) were intranasally administered with a solvent without GLP-2 derivative and subjected to a tail suspension test in the same manner. The error bar represents mean±SE (n=9), and the statistical processing was performed by Mann-Whitney test (*P<0.05).
# ddY mice [3] = assay: Forced-swim test on a mouse; format: in vivo; settings: Example 3, mouse forced-swim test
# Protocol: The anti-depression activity of the GLP-2 derivative was evaluated by a forced-swim test on a mouse. The test was performed by the following process.
# Twenty-four hours before the test, ddY mice (5-7 week old, male, n=12) were subjected to a preliminary swimming for 15 minutes. The mice were administered GLP-2 derivative by 3.6 μg with the DMSO solution, on the day before the test and on the day for the test, respectively. Then, the test was performed in the same manner as Example 1, and the immobility time (s) was measured. As a control, mice (5-7 week old, male, n=12) were administered with a solution without GLP-2 derivative were subjected to a forced-swim test in the same manner. The error bar represents mean±SE (n=12), and the statistical processing was performed by Mann-Whitney test (*P<0.05).
# depression model mouse = assay: Forced-swim test on ACTH-induced treatment-resistant depression model mouse; format: in vivo; settings: Example 5, treatment-resistive depression model
# Protocol: The anti-depression activity of the GLP-2 derivative was evaluated by a forced-swim test on a depression model […] using the DMSO solution of GLP-2 derivative as prepared in Example 3.
# As the depression model mouse, ddY mice (5-7 week old, male, n=11) were administered with adrenocorticotropic hormone (ACTH) to induce an enhanced state of hypothalamic-pituitary-adrenal axis (HPA system). The administration of ACTH was performed by 0.45 mg/kg/day for consecutive 14 days.
# The forced-swim test was performed in the same manner as Example 3 and the immobility time (s) was measured. The mice were intranasally administered with GLP-2 derivative by 3.6 μg as a DMSO solution of GLP-2 derivative, each day for consecutive 6 days until the day for the test. As a control, mice (5-7 week old, male, n=11) were administered with a solvent without GLP-2 derivative by 4 μL each day for consecutive 6 days and subjected to a forced-swim test in the same manner. The error bar represents mean±SE (n=11), and the statistical processing was performed by Mann-Whitney test (*P<0.01).
substance,measurement,setting,value
"FFFFG-(R)8-(G)2-YKVNEYQGPVAPSGGFFLFRPRN-NH2 (not fully specified (N-terminus)) [NmU derivative, derivative of neuromedin U with PAS (FFFFG), octa-arginine and GG spacer]",Alternation behavior (%),"[1]; Example 7: LPS 10 μg three days before test, NmU derivative 3 μg 15 minutes before LPS, individual animals n=6",58.6% and 72.4% and 66.7% and 60.0% and 74.1% and 69.4%
same,Alternation behavior (%),"[1]; Example 7: Vehicle (mice not administered LPS), NmU derivative 3 μg, individual animals n=6",65.9% and 70.5% and 69.0% and 63.9% and 67.8% and 78.8%
FFLIPKG-(R)8-(G)2-HAEGTFTSDVSSYLEGQAAKEFIAWLVKGR-NH2 [GLP-1 derivative],Alternation behavior (%),"[1]; Example 6: LPS 10 μg three days before test, GLP-1 derivative 3 μg 15 minutes before LPS, individual animals n=5",64.3% and 66.7% (2×) and 67.9% and 67.4%
same,Alternation behavior (%),"[1]; Example 6: Vehicle (mice not administered LPS), GLP-1 derivative 3 μg, individual animals n=5",56.4% and 72.2% and 70.3% and 78.6% and 67.6%
HADGSFSDEMNTILDNLAARDFINWLIQTKITD [GLP-2],Immobility time,"rats; Comparative Example 1: GLP-2 alone, individual animals n=6",46 s and 15 s and 45 s and 41 s and 30 s and 33 s
same,Immobility time / anti-depression activity versus control group,rats; Mann-Whitney test,no significant difference in the anti-depression activity
same,Effect of suppressing depression,ddY mice [2],an effect of suppressing depression is obtained
same,Effect of suppressing depression,ddY mice [3],an effect of suppressing depression is obtained
same,Effect of suppressing depression,depression model mouse,an effect of suppressing depression is obtained
"HAEGTFTSDVSSYLEGQAAKEFIAWLVKGR-NH2 [GLP-1, glucagon-like peptide-1; label printed in b156 where the GLP-1 derivative is probably meant, reference compound]",Learning ability in Y-maze test,[1],learning ability is significantly ameliorated
"YKVNEYQGPVAPSGGFFLFRPRN-NH2 [NmU, neuromedin U; label printed in b156 where the NmU derivative is probably meant, reference compound]",Learning ability in Y-maze test,[1],learning ability is significantly ameliorated

# Source: patent publication US20210163567A1, “Method of Delivering a Centrally-Acting Peptide Derivative, and Method of Treating a Neuropsychiatric Disorder” (TOKYO UNIVERSITY OF SCIENCE FOUNDATION, priority 2014, published 2021)
